Here are results for two molecules from paper PMC10674866, “Electrosprayed Nanoparticles Containing Mangiferin-Rich Extract from Mango Leaves for Cosmeceutical Application” (Nanomaterials, 2023).

Converted amounts (≈) assume the structure as drawn.

Type in all cases: biochemical
Assay [1] has as its target T1, tyrosinase from mushroom.
T1 construct: gene PPO1
As to the kind of experiment: absorbance at […] nm. To be noted: L-tyrosine substrate; 20 mM phosphate pH 6.8; room temperature.

In assay [2] the target is T2, collagenase from Histidium histolyticum.
T2 construct: gene colG
Briefly: fluorescence assay of collagen hydrolysis ([…],4-DHPAA / periodate). The settings on record: collagen substrate; borate buffer pH 7.5; 5 mM CaCl2; 37 °C.

Assay [3] deals with T3, hyaluronidase from bovine (Bos taurus, UniProt Q2YDK3).
T3 construct: gene SPAM1; commercial native enzyme (Sigma-Aldrich)
T3 sequence (Q2YDK3 36-553): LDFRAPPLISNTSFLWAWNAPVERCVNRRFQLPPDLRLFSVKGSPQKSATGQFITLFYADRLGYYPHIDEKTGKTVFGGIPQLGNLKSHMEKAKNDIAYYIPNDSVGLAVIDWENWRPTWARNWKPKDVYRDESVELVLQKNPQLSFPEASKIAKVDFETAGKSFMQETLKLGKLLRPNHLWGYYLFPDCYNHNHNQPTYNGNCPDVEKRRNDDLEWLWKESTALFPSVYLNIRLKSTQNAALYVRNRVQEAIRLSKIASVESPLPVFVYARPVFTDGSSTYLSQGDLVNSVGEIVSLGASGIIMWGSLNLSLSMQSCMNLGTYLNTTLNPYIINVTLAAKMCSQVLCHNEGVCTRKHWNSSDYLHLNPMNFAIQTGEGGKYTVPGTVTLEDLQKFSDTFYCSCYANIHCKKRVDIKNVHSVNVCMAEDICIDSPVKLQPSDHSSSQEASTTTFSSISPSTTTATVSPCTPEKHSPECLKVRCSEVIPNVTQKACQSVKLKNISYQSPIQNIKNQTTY
As to the kind of experiment: turbidity with acidic albumin, absorbance at […] nm. To be noted: read-out: % inhibition at 40.0 μg/mL.

`O=C1O[C@H]([C@@H](O)CO)C(O)=C1O` [ascorbic acid]: the 50% inhibitory concentration (IC50) turned out to be 69.8 ± 0.018 µg/mL (≈ 396 µM) in assay [1] and 107.84 ± 0.001 µg/mL (≈ 612 µM) in assay [2].

As to `O=c1c2cc(O)c(O)cc2oc2cc(O)c([C@@H]3O[C@H](CO)[C@@H](O)[C@H](O)[C@H]3O)c(O)c12` [mangiferin], the inhibition at 40 µg/mL in assay [3] came to 1.72 ± 1.13%. The molecule also registered an IC50 in assay [2] of 30.06 ± 0.001 µg/mL (≈ 71.2 µM).

By IC50 is commonly meant the concentration that inhibits the measured activity by half. The low end stands for higher potency, the high end for lower potency.
